Test results taken from patent US20080213250A1, “Use of Eph Receptor Inhibitors for the Treatment of Neurodegenerative Diseases” (priority 2004, published 2008).

Columns and labels:
Assay in all cases: Chemical proteomics pull-down with immobilized compound, LC-MS/MS identification
Conditions in all cases: maximum in any chemical proteomics experiment
EphA4 = EphA4 (Mus musculus, UniProt Q03137)
EphA5 = EphA5 (Mus musculus, UniProt Q60629)
EphA7 = EphA7 (Mus musculus, UniProt Q61772)
EphB2 = target: T1, EphB2 (Mus musculus, UniProt P54763)
T1 sequence (P54763 19-986): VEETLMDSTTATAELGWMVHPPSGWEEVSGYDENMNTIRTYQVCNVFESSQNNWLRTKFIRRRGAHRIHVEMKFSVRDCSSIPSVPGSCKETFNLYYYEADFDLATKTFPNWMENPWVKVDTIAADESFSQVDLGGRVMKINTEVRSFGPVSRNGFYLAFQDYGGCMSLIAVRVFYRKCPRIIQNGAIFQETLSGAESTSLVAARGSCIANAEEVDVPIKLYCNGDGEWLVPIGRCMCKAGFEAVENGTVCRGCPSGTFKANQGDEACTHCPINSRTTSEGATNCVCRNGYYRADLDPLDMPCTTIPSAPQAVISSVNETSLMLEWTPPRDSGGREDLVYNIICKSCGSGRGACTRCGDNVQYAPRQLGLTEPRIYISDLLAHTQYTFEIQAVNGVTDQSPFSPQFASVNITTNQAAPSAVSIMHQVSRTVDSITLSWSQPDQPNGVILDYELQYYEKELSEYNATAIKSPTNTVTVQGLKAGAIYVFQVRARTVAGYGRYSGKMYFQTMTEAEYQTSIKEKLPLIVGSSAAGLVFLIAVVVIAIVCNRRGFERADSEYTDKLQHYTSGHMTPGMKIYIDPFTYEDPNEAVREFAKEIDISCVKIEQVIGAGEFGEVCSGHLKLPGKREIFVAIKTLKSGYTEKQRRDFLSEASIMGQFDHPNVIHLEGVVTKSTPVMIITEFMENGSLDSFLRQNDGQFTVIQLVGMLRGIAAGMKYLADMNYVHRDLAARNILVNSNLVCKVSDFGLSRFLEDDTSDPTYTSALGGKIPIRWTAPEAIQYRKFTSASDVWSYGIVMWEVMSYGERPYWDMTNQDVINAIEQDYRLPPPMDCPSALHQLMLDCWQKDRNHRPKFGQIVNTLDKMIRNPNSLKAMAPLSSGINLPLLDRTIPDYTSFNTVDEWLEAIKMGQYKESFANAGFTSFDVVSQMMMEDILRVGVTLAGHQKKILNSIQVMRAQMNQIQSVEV

EphB3 = target: T2, EphB3 (Mus musculus, UniProt P54754)
T2 sequence (P54754 30-993): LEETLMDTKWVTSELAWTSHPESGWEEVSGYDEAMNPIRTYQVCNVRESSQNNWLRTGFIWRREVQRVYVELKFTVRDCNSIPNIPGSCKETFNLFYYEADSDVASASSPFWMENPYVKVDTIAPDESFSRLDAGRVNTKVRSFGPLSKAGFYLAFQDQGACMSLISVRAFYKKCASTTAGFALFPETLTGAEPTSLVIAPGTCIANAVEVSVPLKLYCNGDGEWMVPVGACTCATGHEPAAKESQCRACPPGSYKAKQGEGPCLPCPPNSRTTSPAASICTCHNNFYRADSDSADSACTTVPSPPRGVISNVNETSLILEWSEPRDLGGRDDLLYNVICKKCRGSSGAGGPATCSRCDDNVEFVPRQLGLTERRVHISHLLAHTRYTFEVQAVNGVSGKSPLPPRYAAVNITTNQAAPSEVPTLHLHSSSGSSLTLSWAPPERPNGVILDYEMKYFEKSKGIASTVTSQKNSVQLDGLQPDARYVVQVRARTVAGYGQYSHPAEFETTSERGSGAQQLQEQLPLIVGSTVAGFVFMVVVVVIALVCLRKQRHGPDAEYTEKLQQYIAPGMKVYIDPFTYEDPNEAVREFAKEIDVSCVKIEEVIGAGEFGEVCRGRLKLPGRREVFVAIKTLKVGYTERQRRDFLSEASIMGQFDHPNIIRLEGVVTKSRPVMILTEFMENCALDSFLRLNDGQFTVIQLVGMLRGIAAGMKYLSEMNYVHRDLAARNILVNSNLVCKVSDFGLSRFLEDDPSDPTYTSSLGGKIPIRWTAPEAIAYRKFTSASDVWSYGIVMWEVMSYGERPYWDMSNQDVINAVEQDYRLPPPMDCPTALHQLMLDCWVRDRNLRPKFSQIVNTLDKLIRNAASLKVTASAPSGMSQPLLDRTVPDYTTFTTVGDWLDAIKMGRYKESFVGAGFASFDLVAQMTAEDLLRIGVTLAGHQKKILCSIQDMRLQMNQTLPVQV

Chain of EphA7 (Q61772 28-998): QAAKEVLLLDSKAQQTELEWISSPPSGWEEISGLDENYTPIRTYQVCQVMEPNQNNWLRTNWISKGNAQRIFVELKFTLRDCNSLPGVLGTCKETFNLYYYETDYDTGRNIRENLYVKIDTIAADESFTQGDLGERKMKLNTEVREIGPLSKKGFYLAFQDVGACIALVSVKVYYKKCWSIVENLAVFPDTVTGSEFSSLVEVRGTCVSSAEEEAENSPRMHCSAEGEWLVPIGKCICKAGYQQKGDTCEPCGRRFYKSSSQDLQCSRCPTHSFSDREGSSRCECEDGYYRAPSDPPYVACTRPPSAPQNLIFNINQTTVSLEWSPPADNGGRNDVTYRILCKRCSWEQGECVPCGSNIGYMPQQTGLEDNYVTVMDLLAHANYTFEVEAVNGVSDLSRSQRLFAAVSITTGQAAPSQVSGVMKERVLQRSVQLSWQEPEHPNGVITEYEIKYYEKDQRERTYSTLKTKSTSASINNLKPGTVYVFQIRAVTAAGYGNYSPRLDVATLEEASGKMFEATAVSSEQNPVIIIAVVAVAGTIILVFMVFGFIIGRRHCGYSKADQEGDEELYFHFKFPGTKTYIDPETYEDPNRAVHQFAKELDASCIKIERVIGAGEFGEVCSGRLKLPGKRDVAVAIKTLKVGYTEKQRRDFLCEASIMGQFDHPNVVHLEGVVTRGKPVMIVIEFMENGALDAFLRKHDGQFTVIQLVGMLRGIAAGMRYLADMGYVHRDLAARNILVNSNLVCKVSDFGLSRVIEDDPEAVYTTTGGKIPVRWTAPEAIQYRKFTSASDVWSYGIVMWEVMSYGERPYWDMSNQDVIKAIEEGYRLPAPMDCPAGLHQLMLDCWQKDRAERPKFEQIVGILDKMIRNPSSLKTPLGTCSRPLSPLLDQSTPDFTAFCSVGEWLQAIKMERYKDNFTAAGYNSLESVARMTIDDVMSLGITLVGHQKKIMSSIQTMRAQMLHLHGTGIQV
Chain of EphA5 (Q60629 27-876): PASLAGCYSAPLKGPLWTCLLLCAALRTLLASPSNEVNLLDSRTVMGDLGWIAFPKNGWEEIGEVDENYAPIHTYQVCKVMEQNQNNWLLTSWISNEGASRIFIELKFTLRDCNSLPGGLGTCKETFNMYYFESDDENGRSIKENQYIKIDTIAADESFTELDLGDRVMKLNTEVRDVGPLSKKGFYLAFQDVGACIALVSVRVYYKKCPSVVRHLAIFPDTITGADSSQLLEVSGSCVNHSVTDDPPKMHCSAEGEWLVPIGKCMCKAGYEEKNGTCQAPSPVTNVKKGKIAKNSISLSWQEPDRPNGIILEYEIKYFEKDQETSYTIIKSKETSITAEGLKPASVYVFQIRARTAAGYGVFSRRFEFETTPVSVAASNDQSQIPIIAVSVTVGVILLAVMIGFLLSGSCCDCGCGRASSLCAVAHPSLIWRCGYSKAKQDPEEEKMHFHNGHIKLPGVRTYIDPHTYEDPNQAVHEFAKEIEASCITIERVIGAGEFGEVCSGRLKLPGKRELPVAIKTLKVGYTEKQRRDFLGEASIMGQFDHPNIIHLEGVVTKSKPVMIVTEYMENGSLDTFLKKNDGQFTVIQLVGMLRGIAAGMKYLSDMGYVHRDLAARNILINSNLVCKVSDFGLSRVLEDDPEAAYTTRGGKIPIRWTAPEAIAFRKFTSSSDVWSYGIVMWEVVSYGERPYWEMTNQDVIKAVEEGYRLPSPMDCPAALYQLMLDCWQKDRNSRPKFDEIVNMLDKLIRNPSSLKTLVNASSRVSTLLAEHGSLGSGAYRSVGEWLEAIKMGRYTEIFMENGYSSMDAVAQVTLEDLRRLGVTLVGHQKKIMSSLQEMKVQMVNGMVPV
Chain of EphA4 (Q03137 20-986): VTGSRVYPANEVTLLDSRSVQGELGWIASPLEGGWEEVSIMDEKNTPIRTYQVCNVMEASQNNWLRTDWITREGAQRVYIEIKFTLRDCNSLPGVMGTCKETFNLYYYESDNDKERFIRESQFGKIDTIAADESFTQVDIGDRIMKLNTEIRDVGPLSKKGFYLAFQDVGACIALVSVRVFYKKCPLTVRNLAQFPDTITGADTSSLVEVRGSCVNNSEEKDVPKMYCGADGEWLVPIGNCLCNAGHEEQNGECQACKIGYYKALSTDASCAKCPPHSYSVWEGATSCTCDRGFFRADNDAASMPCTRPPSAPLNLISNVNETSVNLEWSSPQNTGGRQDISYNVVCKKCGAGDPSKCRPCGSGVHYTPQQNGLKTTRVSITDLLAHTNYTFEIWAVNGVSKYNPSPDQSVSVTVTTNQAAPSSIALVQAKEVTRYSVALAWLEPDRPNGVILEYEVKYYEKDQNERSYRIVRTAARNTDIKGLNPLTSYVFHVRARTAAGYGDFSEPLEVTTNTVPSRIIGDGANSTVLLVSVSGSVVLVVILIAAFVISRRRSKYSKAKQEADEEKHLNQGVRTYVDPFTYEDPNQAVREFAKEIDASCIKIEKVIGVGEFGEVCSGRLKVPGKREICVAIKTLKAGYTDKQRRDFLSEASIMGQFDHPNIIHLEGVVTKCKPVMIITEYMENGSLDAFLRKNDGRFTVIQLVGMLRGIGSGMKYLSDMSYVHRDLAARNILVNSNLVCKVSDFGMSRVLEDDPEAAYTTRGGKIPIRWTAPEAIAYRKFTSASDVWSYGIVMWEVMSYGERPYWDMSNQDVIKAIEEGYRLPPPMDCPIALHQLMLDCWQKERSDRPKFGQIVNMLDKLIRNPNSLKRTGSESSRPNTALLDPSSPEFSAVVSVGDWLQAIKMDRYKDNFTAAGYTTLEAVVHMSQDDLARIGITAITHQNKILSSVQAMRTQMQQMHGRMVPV

Row | maximal number of non-redundant peptides identified, EphA4 (EphA4) | maximal number of non-redundant peptides identified, EphA5 (EphA5) | maximal number of non-redundant peptides identified, EphA7 (EphA7) | maximal number of non-redundant peptides identified, EphB2 (EphB2) | maximal number of non-redundant peptides identified, EphB3 (EphB3) | SMILES
1 | 14 | 5 | 4 | 23 | 4 | CC(C)[C@H](CO)Nc1nc(Nc2ccc(C(=O)O)c(Cl)c2)c2ncn(C(C)C)c2n1 [Purvalanol B]
2 | 47 | 4 | 7 | 35 | 17 | CSc1cccc(Nc2ncc3cc(-c4c(Cl)cccc4Cl)c(=O)n(C)c3n2)c1 [PD173955]
